# Experimental data from US8937091B2 (Japan Science and Technology Agency, priority 2009, dated 2015).
# Tests used:
# [1] = tested on: SOCE (store operated calcium entry) in CHO cells; assay: Assay of SOCE (store operated calcium entry)-inhibiting action; assay type: cell-based, Chinese hamster; details: for inhibition at 10 µM / inhibition at 30 µM / inhibition at 100 µM / SOCE level (percentage of inhibition): CHO cells, thapsigargin; for inhibition at 10 µM / inhibition at 30 µM / inhibition at 100 µM: read-out: SOCE level (percentage of inhibition)
# In short: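 CHO cells in calcium-free BSS received compound, then 1 μM thapsigargin 2 min later to deplete stores; after 9 min, 2 mM calcium chloride (final) added. Percent inhibition of the rise in intracellular calcium determined at various compound concentrations.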
# [2] = tested on: IICR (IP3 induced calcium release) in CHO cells; assay: Assay of IICR (IP3 induced calcium release)-inhibiting action; assay type: cell-based, Chinese hamster; details: for inhibition at 10 µM / inhibition at 30 µM / inhibition at 100 µM / IICR level (percentage of inhibition): CHO cells, 10 μM ATP; for inhibition at 10 µM / inhibition at 30 µM / inhibition at 100 µM: read-out: IICR level (percentage of inhibition)
# In short: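 Inhibition (%) of the intracellular calcium increase triggered by 10 μM ATP, measured in CHO cells in BSS with calcium. Compound given 1 min after the buffer exchange and 2 min before ATP; values reported per compound concentration.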
# [3] = Cricetulus griseus, CHO, test compound 10 μmol
# [4] = Cricetulus griseus, CHO, test compound 30 μmol
# [5] = Cricetulus griseus, CHO, test compound 100 μmol
# [6] = Cricetulus griseus, CHO, Table 1
SMILES,"inhibition at 10 µM [1, 3]","inhibition at 30 µM [1, 4]","inhibition at 100 µM [1, 5]","inhibition at 10 µM [2, 3]","inhibition at 30 µM [2, 4]","inhibition at 100 µM [2, 5]",SOCE level (percentage of inhibition) ([1]; test compound 10 μmol),SOCE level (percentage of inhibition) ([1]; test compound 30 μmol),SOCE level (percentage of inhibition) ([1]; test compound 100 μmol),IICR level (percentage of inhibition) ([2]; test compound 10 μmol),IICR level (percentage of inhibition) ([2]; test compound 30 μmol),IICR level (percentage of inhibition) ([2]; test compound 100 μmol),"IC50 [1, 6]","IC50 [2, 6]"
"CC(C)(C)N(CCC(=O)c1sccc1Br)Cc1ccccc1 [Example 407, 2-(N-t-butyl-N-benzyl)aminoethyl-3-bromo-2-thienylketone]",20%,40%,50%,89%,83%,77%,–,–,–,–,–,–,–,–
"CC(C)(C)N(CCC(=O)c1ccc(C#N)cc1)Cc1ccccc1 [Example 304, 4-cyanophenyl(N-benzyl-N-t-butyl)aminoethylketone]",–,–,–,–,–,–,0%,0%,10%,90%,100%,20%,–,–
"COc1ccc(C(=O)CCN(Cc2ccccc2)C(C)C)cc1 [Example 72, 2-(N-isopropylbenzyl)aminoethyl-4-methoxyphenylketone]",0%,10%,20%,20%,20%,70%,–,–,–,–,–,–,–,–
"O=C(CCNCC(O)c1ccccc1)c1ccc(Oc2ccccc2)cc1 (stereo not drawn) [Example 87, 2-(N-2-hydroxy-2-phenylethyl)aminoethyl-4-phenoxyphenylketone]",0%,0%,20%,10%,10%,90%,–,–,–,–,–,–,–,–
O=C(CCNCCC1=NCN=C1)c1ccc(Oc2ccccc2)cc1 [Example 113],0%,10%,40%,70%,90%,100%,–,–,–,–,–,–,–,–
"NCCCCNCCC(=O)c1ccc2ccccc2c1 [Example 118, 2-(N-aminobutyl)aminoethyl-2-naphthylketone]",0%,0%,0%,0%,0%,0%,–,–,–,–,–,–,–,–
"O=C(CCN(CCO)CCO)c1cccs1 [Example 149, 2-(N-dihydroxyethyl)aminoethylthiophenylketone]",0%,0%,0%,20%,20%,80%,–,–,–,–,–,–,–,–
"CC(C)N(CCC(=O)c1ccncc1)Cc1ccccc1 [Example 107, 2-(N-isopropylbenzyl)aminoethyl-4-pyridylketone]",0%,20%,30%,30%,90%,90%,–,–,–,–,–,–,> 100 µM,< 10 µM
"O=C(CCN(CCO)Cc1ccccc1)c1cc(Cl)sc1Cl [Example 204, 2-(N-2-hydroxyethylbenzyl)aminomethyl-3-(2,5-dichlorothiophenyl)ketone]",0%,0%,50%,0%,40%,70%,–,–,–,–,–,–,–,–
"CN(CCO)CCC(=O)c1ccc(Br)s1 [Example 328, 2-(N-hydroxyethylmethyl)aminoethyl-5-bromo-2-thienylketone]",10%,10%,0%,0%,10%,80%,–,–,–,–,–,–,–,–
"CN(CCC(=O)c1ccc2ccccc2c1)Cc1ccccc1 [Example 99, 2-(N-methylbenzyl)aminoethyl-2-naphthylketone]",–,–,–,–,–,–,0%,0%,30%,0%,20%,60%,–,–
"CC(C)N(CCO)CCC(=O)c1cc2ccccc2s1 [Example 284, 2-(N-isopropyl-2-hydroxyethyl)aminoethyl-2-benzothienylketone]",–,0%,0%,0%,0%,40%,–,–,–,–,–,–,–,–
"O=C(CCNCc1ccccc1)c1ccc(Br)s1 [Example 382, 2-N-benzylaminoethyl-5-bromo-2-thienylketone]",0%,10%,20%,0%,10%,50%,–,–,–,–,–,–,–,–
"O=C(CCN(CCO)CCO)c1cccnc1 [Example 150, 2-(N-bishydroxyethyl)aminoethyl-3-pyridylketone]",0%,0%,10%,30%,20%,50%,–,–,–,–,–,–,–,–
"CCN(CO)CCC(=O)c1ccc(Br)s1 [Example 362, 2-(N-hydroxymethyl-N-ethyl)aminoethyl-5-bromo-2-thienylketone]",11%,13%,23%,0%,0%,70%,–,–,–,–,–,–,–,–
"CCCCN(CCC(=O)c1ccc2ccccc2c1)Cc1ccccc1 [Example 378, 2-(N-butyl-N-benzyl)aminoethyl-2-naphthylketone]",0%,0%,41%,50%,24%,46%,–,–,–,–,–,–,–,–
"O=C(CCN1CCCCC1)c1ccc2c(Cl)cccc2c1 [Example 88, 2-piperidinoethyl-5-chloro-2-naphthylketone]",0%,0%,20%,10%,10%,100%,–,–,–,–,–,–,–,–
"CC(C)N(CCO)CCC(=O)c1ccc(Cl)s1 [Example 267, 2-(N-2-hydroxyethylisopropyl)aminoethyl-5-chloro-2-thiophenylketone]",0%,0%,0%,0%,0%,70%,–,–,–,–,–,–,–,–
"CC(O)CNCCC(=O)c1cnccn1 (stereo not drawn) [Example 281, 2-(N-2-hydroxypropyl)aminoethyl-2-pyrazylketone]",–,0%,0%,20%,20%,50%,–,–,–,–,–,–,–,–
"Cc1ccc(C(=O)CCNCc2ccccc2)o1 [Example 152, 2-(N-benzyl)aminoethyl-5-methyl-2-furylketone]",0%,10%,30%,20%,10%,30%,–,–,–,–,–,–,–,–
"CN(CCC(=O)c1ccncc1)Cc1ccccc1 [Example 31, 2-(N-methylbenzyl)aminoethyl-4-pyridylketone]",0%,0%,0%,40%,60%,80%,–,–,–,–,–,–,–,–
"NCCN(CCO)CCC(=O)c1ccc(Br)s1 [Example 334, 2-(N-2-hydroxyethyl-N-2-aminoethyl)aminoethyl-5-bromo-2-thienylketone]",30%,30%,40%,20%,0%,60%,–,–,–,–,–,–,–,–
